Several values for one entry are separate records, joined by “and”; a condition that tells them apart may be missing. Identical values can stand only once.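 Test compounds were applied to cells in 96-well plates for 48 hours at 5 doses. Abbreviation: GI50, concentration required for 50% inhibition of growth. TGI denotes the concentration required for complete inhibition of growth.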
Assays:
Assay in all cases: growth of human tumour cells (NCI), 48 h
[1] = test system: A549 NSCLC
[2] = test system: HCC-2998 colon
[3] = test system: MOLT-4 leukemia
[4] = test system: NCI-H23 lung
[5] = test system: OVCAR-3 ovarian
[6] = test system: SK-MEL-28 melanoma
[7] = test system: SK-OV-3 ovarian
[8] = test system: U251 CNS
[9] = test system: NCI-H522 lung
[10] = test system: MDA-MB-231 breast

| SMILES | TGI [1] | TGI [2] [µM] | TGI [3] | TGI [4] | TGI [5] | TGI [6] | TGI [7] [µM] | TGI [8] | TGI [9] | GI50 [1] [µM] | GI50 [3] [µM] | GI50 [4] [µM] | GI50 [9] [µM] | GI50 [5] [µM] | GI50 [6] [µM] | GI50 [8] [µM] | GI50 [10] [µM] | TGI [10] [µM] | GI50 [7] [µM] | GI50 [2] [µM] |
| --- | --- | --- | --- | --- | --- | --- | --- | --- | --- | --- | --- | --- | --- | --- | --- | --- | --- | --- | --- | --- |
| COc1cc2nc(Sc3c([N+](=O)[O-])ncn3C)[nH]c2cc1OC | > 100 µM | > 100 | 44.4 µM | > 100 µM | > 100 µM | > 100 µM | > 100 | > 100 µM | – | – | – | – | – | – | – | – | – | – | – | – |
| C#CCOCn1cnc2c(=S)nc[nH]c21 | > 100 µM | > 100 | – | > 100 µM | > 100 µM | > 100 µM | > 100 | > 100 µM | > 100 µM | – | – | – | – | – | – | – | – | – | – | – |
| C/C=C/C=N/N(C(=O)c1cc([N+](=O)[O-])cc([N+](=O)[O-])c1)C1=NC(c2ccccc2)C(c2ccccc2)=NN1 (stereo not given) | > 100 µM | > 100 | > 100 µM | 77.9 µM | 72 µM | > 100 µM | > 100 | > 100 µM | 57 µM | – | – | – | – | – | – | – | – | – | – | – |
| COc1cc2ccc3c4c(OC)cc(OC)c(OC)c4c(=O)n(C)c3c2cc1OC | 16.7 µM and > 35.8 µM | > 36.1 | 10.2 µM and 3.79 µM | 16.7 µM and > 46 µM | 7.02 µM and > 40.5 µM | 16.7 µM and > 48.5 µM | > 47.8 | 3.71 µM and 10.6 µM | 10.9 µM and > 32.8 µM | 1.18 | 0.591 | 2.09 | 0.745 | 0.755 | 8.01 | 0.299 | – | – | – | – |
| COC(=O)C(C(=O)C(=O)Nc1ccccc1C(C)=O)c1nc2ccc(Cl)cc2[nH]c1=O (stereo not given) | > 100 µM | > 100 | > 100 µM | > 100 µM | > 100 µM | > 100 µM | > 100 | > 100 µM | – | – | – | – | – | – | – | – | – | – | – | – |
| CCC1=C(C)/C(=C/c2[nH]c(CBr)c(CC)c2C)N=C1CBr | 36.7 µM | 26.3 | 27.6 µM | 46.7 µM | 30.1 µM | 34.2 µM | 45 | 24.6 µM | 9.67 µM | – | – | – | – | – | – | – | – | – | – | – |
| Cc1c(C(=O)CC(=O)C(=O)Nc2ccc(Cl)c(Cl)c2)[n+](=O)c2ccccc2n1[O-] | 69.3 µM | 67.3 | 44.5 µM | 96 µM | 7.91 µM | > 100 µM | > 100 | 72.3 µM | 37 µM | – | – | – | – | – | – | – | – | – | – | – |
| ClC1CCC2OOC1O2 (stereo not given) | > 100 µM | > 100 | > 100 µM | > 100 µM | > 100 µM | > 100 µM | > 100 | > 100 µM | > 100 µM | – | – | – | – | – | – | – | – | – | – | – |
| O=C(O)c1ccc2c(c1Nc1ccccc1)C(=O)c1ccccc1C2=O | > 100 µM | – | > 100 µM | > 100 µM | > 100 µM | > 100 µM | > 100 | > 100 µM | – | 51.2 | > 100 | 19 | – | 20.7 | > 100 | 47 | 46.2 | > 100 | 34.2 | – |
| COc1ccc(NC(=O)C(=O)C2CNC(=O)NC2=O)c(OC)c1 (stereo not given) | > 100 µM | > 100 | > 100 µM | > 100 µM | > 100 µM | > 100 µM | > 100 | > 100 µM | > 100 µM | – | – | – | – | – | – | – | – | – | – | – |
| COC(=O)C1=CN=C(C(=O)OC)NN1 | > 100 µM | – | > 100 µM | > 100 µM | > 100 µM | > 100 µM | > 100 | > 100 µM | > 100 µM | – | – | – | – | – | – | – | – | – | – | – |
| CC(=O)OCc1cc(OC(C)=O)cnc1COC(C)=O | > 100 µM | – | > 100 µM | > 100 µM | > 100 µM | > 100 µM | > 100 | > 100 µM | > 100 µM | – | – | – | – | – | – | – | – | – | – | – |
| COc1ccc(C(c2ccc(C(C)C)cc(=O)c2O)c2ccc3cccnc3c2O)cc1 (stereo not given) | 12.3 µM | – | > 100 µM | 1.58 µM | 4.95 µM | – | 16.4 | 3.5 µM | 10.9 µM | – | – | – | – | – | – | – | – | – | – | – |
| C[C@@H](CO)OCOCc1ccccc1 | > 100 µM | > 100 | > 100 µM | > 100 µM | > 100 µM | > 100 µM | > 100 | > 100 µM | > 100 µM | – | – | – | – | – | – | – | – | – | – | – |
| N.N.N.N.N.N.[I-].[Os] | > 100 µM | > 100 | > 100 µM | > 100 µM | > 100 µM | > 100 µM | > 100 | > 100 µM | > 100 µM | > 100 | > 100 | > 100 | > 100 | > 100 | > 100 | > 100 | – | – | > 100 | > 100 |
| Cc1ccc([N+](=O)[O-])cc1NC(=O)C(=O)Cc1occc(=O)c1O | > 100 µM | > 100 | – | – | > 100 µM | > 100 µM | > 100 | > 100 µM | > 100 µM | – | – | – | – | – | – | – | – | – | – | – |
| Cc1ccc(S(=O)(=O)/N=c2\ssc(Nc3ccccc3)c2Cl)cc1 | > 50 µM | – | > 50 µM | 27.1 µM | 20.2 µM | – | > 50 | 21.3 µM | > 50 µM | 14.6 | 10.3 | 11 | 19.8 | 6.08 | – | 8.92 | 9.84 | 26 | 15.3 | – |
| CC1(C)OC(C(N)=O)=C(C(N)=O)O1 | > 100 µM | > 100 | > 100 µM | > 100 µM | > 100 µM | > 100 µM | > 100 | > 100 µM | > 100 µM | – | – | – | – | – | – | – | – | – | – | – |
| O=C(/C=C\c1cccc2ccccc12)c1cccs1 | 34.5 µM | 30 | 35.8 µM | 34.8 µM | 23.7 µM | 28 µM | 31.7 | 16.5 µM | 8.49 µM | – | – | – | – | – | – | – | – | – | – | – |
| O=C(O)CC(Nc1ccccc1)C(=O)O (stereo not given) | > 100 µM | – | > 100 µM | > 100 µM | > 100 µM | > 100 µM | > 100 | > 100 µM | > 100 µM | – | – | – | – | – | – | – | – | > 100 | – | – |
| CN(C)C(=O)/N=c1\ss/c(=N\C(=S)N(C)C)n1-c1ccccc1 | > 100 µM | > 100 | > 82.1 µM | > 100 µM | > 65.6 µM | > 56.6 µM | > 100 | > 100 µM | 8.12 µM | 0.0483 | 0.158 | – | – | – | – | – | – | – | – | – |
| O=C(O)c1ccc(O)c(N=Nc2cc(S(=O)(=O)O)c3ccccc3c2O)c1 | > 100 µM | > 100 | > 100 µM | > 100 µM | > 100 µM | > 100 µM | > 10 | > 100 µM | – | – | – | – | – | – | – | – | – | – | – | – |
